Results reported in ChEMBL document CHEMBL1154213, “Composition of the fresh leaves and stems of Melissa officinalis and evaluation of skin irritation in a reconstituted human epidermis model” (J Nat Prod, 2009).
≈ marks a conversion by molar mass, not a printed value. One block for each compound: values may come before it. Calls of active or inactive are those of the source. The rule behind the calls is not given here.

How the values were obtained:
Skin epidermis = assay: Reduction of trans epithelial electrical resistance in human reconstituted epidermis after 15 mins of topical exposure followed by 42 hrs of recovery; type: functional
Homo sapiens = assay: Antiinflammatory activity against reconstituted human epidermis model assessed as inhibition of IL1-alpha release measured after 15 mins of topical exposure followed by 42 hrs of recovery by ELISA; type: functional; details: Skin epidermis
[1] = Cytotoxicity against human reconstituted epidermal cells at 17.1 mM after 15 mins of topical exposure followed by 42 hrs of recovery by MTT assay; type: cell-based; details: 0.25 h, 17100 µM
[2] = system: Radical scavenging activity; assay: Antioxidant activity assessed as DPPH radical scavenging activity; type: functional
Candida albicans [3] = assay: Antimicrobial activity against Candida albicans ATCC 10231 after 5 days by broth dilution method; type: functional, organism-based
Staphylococcus aureus [4] = assay: Antimicrobial activity against Staphylococcus aureus ATCC 6538 after 24 hrs by broth dilution method; type: functional; details: ATCC 6538, 24 h
Staphylococcus aureus [5] = assay: Antimicrobial activity against Staphylococcus aureus ATCC 6538 after 48 hrs by broth dilution method; type: functional; details: ATCC 6538, 48 h
Bacillus spizizenii [6] = assay: Antimicrobial activity against Bacillus spizizenii ATCC 6633 after 48 hrs by broth dilution method; type: functional; details: ATCC 6633, 48 h
[7] = system: Staphylococcus epidermidis; assay: Antimicrobial activity against Staphylococcus epidermidis ATCC 12228 after 48 hrs by broth dilution method; type: functional; details: ATCC 12228, 48 h
Pseudomonas aeruginosa [8] = assay: Antimicrobial activity against Pseudomonas aeruginosa ATCC 9027 after 48 hrs by broth dilution method; type: functional; details: ATCC 9027, 48 h
Pseudomonas aeruginosa [9] = assay: Antimicrobial activity against Pseudomonas aeruginosa ATCC 9027 after 24 hrs by broth dilution method; type: functional; details: ATCC 9027, 24 h
Candida albicans [10] = assay: Antimicrobial activity against Candida albicans ATCC 10231 after 24 hrs by broth dilution method; type: functional; details: ATCC 10231, 24 h
Aspergillus niger [11] = assay: Antimicrobial activity against Aspergillus niger ATCC 16404 after 5 days by broth dilution method; type: functional, organism-based
Escherichia coli [12] = assay: Antimicrobial activity against Escherichia coli ATCC 8739 after 48 hrs by broth dilution method; type: functional, organism-based
Bacillus spizizenii [13] = assay: Antimicrobial activity against Bacillus spizizenii ATCC 6633 after 24 hrs by broth dilution method; type: functional
Escherichia coli [14] = assay: Antimicrobial activity against Escherichia coli ATCC 8739 after 24 hrs by broth dilution method; type: functional, organism-based
Aspergillus niger [15] = assay: Antimicrobial activity against Aspergillus niger ATCC 16404 after 24 hrs by broth dilution method; type: functional; details: ATCC 16404, 24 h
[16] = system: Staphylococcus epidermidis; assay: Antimicrobial activity against Staphylococcus epidermidis ATCC 12228 after 24 hrs by broth dilution method; type: functional; details: ATCC 12228, 24 h

SMILES: C[C@@H]1CC[C@]2(C(=O)O)CC[C@]3(C)C(=CC[C@@H]4[C@@]5(C)C[C@@H](O)[C@H](O)[C@@](C)(COS(=O)(=O)O)[C@@H]5CC[C@]43C)[C@@H]2[C@]1(C)O
- Activity (Skin epidermis): Non-toxic
- Activity (Homo sapiens): Non-toxic
- Activity [1]: > 75%
- Activity [2]: inactive

SMILES: C[C@@H]1CC[C@]2(C(=O)O[C@@H]3O[C@H](CO)[C@@H](O)[C@H](O)[C@H]3O)CC[C@]3(C)C(=CC[C@@H]4[C@@]5(C)C[C@@H](O)[C@H](O)[C@@](C)(COS(=O)(=O)O)[C@@H]5CC[C@]43C)[C@@H]2[C@]1(C)O
- Activity [2]: inactive

- EC50 [2]: 17.8 µM
SMILES: O=C(O)/C=C/c1ccc(O)c(O)c1 [CAFFEIC ACID]

- MIC (Staphylococcus aureus [4]): 120 µg/mL (≈ 0.333 mM)
- EC50 [2]: 8 µM
- MIC (Pseudomonas aeruginosa [9]): 2000 µg/mL (≈ 5.55 mM)
- MIC (Candida albicans [10]): 2000 µg/mL (≈ 5.55 mM)
- MIC (Bacillus spizizenii [13]): 4000 µg/mL (≈ 11.1 mM)
- MIC (Escherichia coli [14]): inactive
- MIC (Aspergillus niger [15]): 4000 µg/mL (≈ 11.1 mM)
- MIC [16]: 120 µg/mL (≈ 0.333 mM)
SMILES: O=C(/C=C/c1ccc(O)c(O)c1)O[C@H](Cc1ccc(O)c(O)c1)C(=O)O [ROSMARINIC ACID]
- MBC (Candida albicans [3]): inactive
- MBC (Staphylococcus aureus [5]): 120 µg/mL (≈ 0.333 mM)
- MBC (Bacillus spizizenii [6]): 4000 µg/mL (≈ 11.1 mM)
- MBC [7]: 1000 µg/mL (≈ 2.78 mM)
- MBC (Pseudomonas aeruginosa [8]): 4000 µg/mL (≈ 11.1 mM)
- MBC (Aspergillus niger [11]): inactive
- MBC (Escherichia coli [12]): inactive
